Laboratory results from patent US20210070748A1, “INHIBITORS OF BRUTONS TYROSINE KINASE” (Pharmacyclics LLC, priority 2015, published 2021).

What was measured:
Assay type in all cases: biochemical
[1] = molecular target: T1, JAK3 (Homo sapiens, UniProt P52333); assay: Inhibition of a panel of kinases, in vitro HotSpot kinase assay: JAK3; settings: D-compounds panel data; 1 μM ATP; read-out: IC50 JAK3
T1 sequence (P52333 1-1124): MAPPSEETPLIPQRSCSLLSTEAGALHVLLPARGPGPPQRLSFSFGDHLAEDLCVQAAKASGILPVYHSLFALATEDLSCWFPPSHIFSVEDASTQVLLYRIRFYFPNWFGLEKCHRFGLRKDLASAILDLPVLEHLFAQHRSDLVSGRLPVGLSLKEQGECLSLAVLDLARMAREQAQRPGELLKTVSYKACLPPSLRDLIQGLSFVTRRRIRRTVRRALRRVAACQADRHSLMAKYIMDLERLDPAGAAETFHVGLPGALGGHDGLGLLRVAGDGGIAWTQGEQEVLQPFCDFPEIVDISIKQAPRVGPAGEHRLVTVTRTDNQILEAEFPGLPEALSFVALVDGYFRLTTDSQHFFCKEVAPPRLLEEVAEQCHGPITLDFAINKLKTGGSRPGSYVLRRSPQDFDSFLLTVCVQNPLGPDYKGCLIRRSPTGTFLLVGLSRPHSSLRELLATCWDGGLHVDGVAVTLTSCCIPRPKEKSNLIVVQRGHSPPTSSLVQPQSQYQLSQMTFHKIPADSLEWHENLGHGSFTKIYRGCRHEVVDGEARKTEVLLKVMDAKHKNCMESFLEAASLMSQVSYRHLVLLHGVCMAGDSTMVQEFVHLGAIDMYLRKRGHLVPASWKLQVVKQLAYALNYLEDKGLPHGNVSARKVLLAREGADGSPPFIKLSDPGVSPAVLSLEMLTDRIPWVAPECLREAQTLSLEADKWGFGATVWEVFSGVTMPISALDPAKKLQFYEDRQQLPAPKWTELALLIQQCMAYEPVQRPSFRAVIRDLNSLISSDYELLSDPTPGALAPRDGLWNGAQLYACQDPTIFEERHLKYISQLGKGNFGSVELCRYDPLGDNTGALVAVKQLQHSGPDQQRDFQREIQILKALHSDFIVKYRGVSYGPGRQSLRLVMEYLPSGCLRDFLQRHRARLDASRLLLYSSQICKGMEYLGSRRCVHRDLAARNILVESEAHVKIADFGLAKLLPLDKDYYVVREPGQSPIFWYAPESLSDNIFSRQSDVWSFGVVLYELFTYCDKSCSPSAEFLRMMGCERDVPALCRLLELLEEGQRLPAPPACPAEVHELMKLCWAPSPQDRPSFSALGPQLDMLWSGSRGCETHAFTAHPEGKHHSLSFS

[2] = molecular target: EGFR (Homo sapiens, UniProt P00533); assay: Inhibition of a panel of kinases, in vitro HotSpot kinase assay: EGFR; settings: D-compounds panel data; 1 μM ATP
Protocol: (§1) The degree of inhibition of a panel of kinases is determined using the in vitro HotSpot kinase assay (purified enzymes, ^33P-ATP, an appropriate substrate and 1 μM ATP).

[3] = molecular target: SRC (Homo sapiens, UniProt P12931); assay: Inhibition of a panel of kinases, in vitro HotSpot kinase assay: SRC; settings: D-compounds panel data; 1 μM ATP
Protocol: as §1

Sequence of SRC (P12931 whole entry): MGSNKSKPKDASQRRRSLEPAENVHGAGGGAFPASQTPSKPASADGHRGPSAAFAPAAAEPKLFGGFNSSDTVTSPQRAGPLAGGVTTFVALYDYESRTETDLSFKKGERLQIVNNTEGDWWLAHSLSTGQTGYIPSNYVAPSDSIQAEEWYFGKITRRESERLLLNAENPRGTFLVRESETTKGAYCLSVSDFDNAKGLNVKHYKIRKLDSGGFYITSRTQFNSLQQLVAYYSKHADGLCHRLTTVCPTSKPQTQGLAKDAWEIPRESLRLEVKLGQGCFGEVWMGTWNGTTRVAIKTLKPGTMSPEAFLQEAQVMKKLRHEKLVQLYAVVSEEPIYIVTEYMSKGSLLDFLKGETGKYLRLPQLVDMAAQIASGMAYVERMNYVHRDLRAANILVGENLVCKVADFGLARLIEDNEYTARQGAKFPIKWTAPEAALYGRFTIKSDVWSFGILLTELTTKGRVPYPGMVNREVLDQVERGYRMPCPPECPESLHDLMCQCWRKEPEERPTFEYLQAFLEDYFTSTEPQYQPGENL
Sequence of EGFR (P00533 25-1210): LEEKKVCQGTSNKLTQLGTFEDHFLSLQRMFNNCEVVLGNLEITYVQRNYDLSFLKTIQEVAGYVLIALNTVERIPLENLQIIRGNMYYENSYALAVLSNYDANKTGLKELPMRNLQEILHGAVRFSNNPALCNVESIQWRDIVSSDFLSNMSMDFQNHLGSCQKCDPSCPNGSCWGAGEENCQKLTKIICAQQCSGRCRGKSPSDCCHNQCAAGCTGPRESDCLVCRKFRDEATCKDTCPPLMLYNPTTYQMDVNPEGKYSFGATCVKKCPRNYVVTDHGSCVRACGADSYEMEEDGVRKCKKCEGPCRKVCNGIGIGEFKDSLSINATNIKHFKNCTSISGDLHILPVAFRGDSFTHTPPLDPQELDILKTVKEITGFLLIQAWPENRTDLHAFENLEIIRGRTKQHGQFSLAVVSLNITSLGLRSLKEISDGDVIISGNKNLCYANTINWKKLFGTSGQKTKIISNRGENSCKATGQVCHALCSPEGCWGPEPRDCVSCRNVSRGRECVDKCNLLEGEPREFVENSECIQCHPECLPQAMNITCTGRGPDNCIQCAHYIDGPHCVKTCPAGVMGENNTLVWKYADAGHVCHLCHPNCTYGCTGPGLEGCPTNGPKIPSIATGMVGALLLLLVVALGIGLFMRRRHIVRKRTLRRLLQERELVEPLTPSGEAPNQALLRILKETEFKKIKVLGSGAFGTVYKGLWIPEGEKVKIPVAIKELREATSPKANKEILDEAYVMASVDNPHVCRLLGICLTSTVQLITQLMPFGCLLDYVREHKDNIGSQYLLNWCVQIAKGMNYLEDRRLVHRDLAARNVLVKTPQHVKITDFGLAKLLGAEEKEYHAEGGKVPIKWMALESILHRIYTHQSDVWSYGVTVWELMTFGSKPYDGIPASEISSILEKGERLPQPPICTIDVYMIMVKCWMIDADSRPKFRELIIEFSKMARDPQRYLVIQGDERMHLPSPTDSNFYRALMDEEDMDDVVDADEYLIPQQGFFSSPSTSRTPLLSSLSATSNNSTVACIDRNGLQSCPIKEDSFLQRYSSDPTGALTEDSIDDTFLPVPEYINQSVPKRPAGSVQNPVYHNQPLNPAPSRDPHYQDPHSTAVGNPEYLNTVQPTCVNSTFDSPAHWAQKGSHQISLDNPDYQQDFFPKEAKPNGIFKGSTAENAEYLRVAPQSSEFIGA

Row | IC50 [1] | IC50 [2] | IC50 [3] | SMILES
1 | 1000 to 10000 nM | 100 to 1000 nM | 10 to 100 nM | C[C@@H]1[C@H](NC(=O)c2ccc(C3CC3)cc2)CCCN1c1cnc(C(N)=O)c(Nc2cnn(C3CCN(C)CC3)c2)n1 [Example D-185, 5-[(2R,3R)-3-(4-cyclopropylbenzamido)-2-methylpiperidin-1-yl]-3-{[1-(1-methylpiperidin-4-yl)-1H-pyrazol-4-yl]amino}pyrazine-2-carboxamide]
2 | 1000 to 10000 nM | 1000 to 10000 nM | 100 to 1000 nM | C[C@@H]1[C@H](NC(=O)c2ccc(C3CC3)cc2)CCCN1c1cnc(C(N)=O)c(Nc2cnn(CCN(C)C)c2)n1 [Example D-187, 5-[(2R,3R)-3-(4-cyclopropylbenzamido)-2-methylpiperidin-1-yl]-3-({1-[2-(dimethylamino)ethyl]-1H-pyrazol-4-yl}amino)pyrazine-2-carboxamide]
3 | 1000 to 10000 nM | 100 to 1000 nM | 10 to 100 nM | C[C@@H]1[C@H](NC(=O)c2ccc(C3CC3)cn2)CCCN1c1cnc(C(N)=O)c(Nc2ccc(N3CCN(C)CC3)cc2)n1 [Example D-188, 5-[(2R,3R)-3-(5-cyclopropylpyridine-2-amido)-2-methylpiperidin-1-yl]-3-{[4-(4-methylpiperazin-1-yl)phenyl]amino}pyrazine-2-carboxamide]
4 | 1000 to 10000 nM | > 10000 nM | 100 to 1000 nM | Cn1cc(Nc2nc(N3CCC[C@@H](NC(=O)c4ccc(C5CC5)cc4)C3)cnc2C(N)=O)cn1 [Example D-191, 5-[(3R)-3-(4-cyclopropylbenzamido)piperidin-1-yl]-3-[(1-methyl-1H-pyrazol-4-yl)amino]pyrazine-2-carboxamide]
5 | 1000 to 10000 nM | 100 to 1000 nM | 10 to 100 nM | C[C@@H]1[C@H](NC(=O)c2ccc(C3CC3)nc2)CCCN1c1cnc(C(N)=O)c(Nc2ccc(N3CCN(C)CC3)cc2)n1 [Example D-203, 5-[(2R,3R)-3-(6-cyclopropylpyridine-3-amido)-2-methylpiperidin-1-yl]-3-{[4-(4-methylpiperazin-1-yl)phenyl]amino}pyrazine-2-carboxamide]
6 | 100 to 1000 nM | > 10000 nM | 100 to 1000 nM | C[C@@H]1[C@H](NC(=O)c2ccc(C3CC3)cc2)CCCN1c1cnc(C(N)=O)c(Nc2cnn(C)c2)c1 [Example D-207, 5-[(2R,3R)-3-(4-cyclopropylbenzamido)-2-methylpiperidin-1-yl]-3-[(1-methyl-1H-pyrazol-4-yl)amino]pyridine-2-carboxamide]

Further lines, the compound ahead of its results:

Row | SMILES | IC50 [1] | IC50 [2] | IC50 [3]
7 | C[C@@H]1[C@H](NC(=O)N(C)C)CCCN1c1cnc(C(N)=O)c(Nc2ccc(N3CCN(C4CCCC4)CC3)cc2)n1 [Example D-182, 3-{[4-(4-cyclopentylpiperazin-1-yl)phenyl]amino}-5-[(2R,3R)-3-[(dimethylcarbamoyl)amino]-2-methylpiperidin-1-yl]pyrazine-2-carboxamide] | 100 to 1000 nM | 100 to 1000 nM | 10 to 100 nM
8 | C[C@@H]1[C@H](NC(=O)c2ccc(N(C)C)cc2)CCCN1c1cnc(C(N)=O)c(Nc2ccc(C3(C)CCN(C4CCCC4)CC3)cc2)n1 [Example D-183, 3-{[4-(1-cyclopentyl-4-methylpiperidin-4-yl)phenyl]amino}-5-[(2R,3R)-3-[4-(dimethylamino)benzamido]-2-methylpiperidin-1-yl]pyrazine-2-carboxamide] | 100 to 1000 nM | 100 to 1000 nM | ≤ 10 nM
9 | Cn1cc(Nc2nc(N3CCC[C@@H](n4ccc5cc(C6CC6)ccc5c4=O)C3)cnc2C(N)=O)cn1 [Example D-184, 5-[(3R)-3-(6-cyclopropyl-1-oxo-1,2-dihydroisoquinolin-2-yl)piperidin-1-yl]-3-[(1-methyl-1H-pyrazol-4-yl)amino]pyrazine-2-carboxamide] | > 10000 nM | > 10000 nM | 1000 to 10000 nM
10 | Cc1cc(Nc2nc(N3CCC[C@@H](c4ncc(-c5ccc(C6CC6)cc5)[nH]4)[C@H]3C)cnc2C(N)=O)sn1 [Example D-186, 5-[(2R,3R)-3-[5-(4-cyclopropylphenyl)-1H-imidazol-2-yl]-2-methylpiperidin-1-yl]-3-[(3-methyl-1,2-thiazol-5-yl)amino]pyrazine-2-carboxamide] | 1000 to 10000 nM | 1000 to 10000 nM | 100 to 1000 nM
11 | Cn1cc(Nc2nc(N3C[C@@H](NC(=O)c4ccc(C5CC5)cc4)CC(F)(F)C3)cnc2C(N)=O)cn1 [Example D-189, 5-[(5S)-5-(4-cyclopropylbenzamido)-3,3-difluoropiperidin-1-yl]-3-[(1-methyl-1H-pyrazol-4-yl)amino]pyrazine-2-carboxamide] | 1000 to 10000 nM | 1000 to 10000 nM | > 10000 nM
12 | Cn1cc(Nc2nc(N3CCC(F)(F)[C@H](NC(=O)c4ccc(C5CC5)cc4)C3)cnc2C(N)=O)cn1 [Example D-192, 5-[(3R)-3-(4-cyclopropylbenzamido)-4,4-difluoropiperidin-1-yl]-3-[(1-methyl-1H-pyrazol-4-yl)amino]pyrazine-2-carboxamide] | 1000 to 10000 nM | > 10000 nM | 1000 to 10000 nM
13 | Cn1cc(Nc2nc(N3CCC(F)(F)[C@@H](NC(=O)c4ccc(C5CC5)cc4)C3)cnc2C(N)=O)cn1 [Example D-193, 5-[(3S)-3-(4-cyclopropylbenzamido)-4,4-difluoropiperidin-1-yl]-3-[(1-methylpyrazol-4-yl)amino]pyrazine-2-carboxamide] | 1000 to 10000 nM | > 10000 nM | 1000 to 10000 nM
14 | C[C@@H]1[C@H](NC(=O)c2ccc(C(C)(C)O)cc2)CCCN1c1cnc(C(N)=O)c(Nc2cnn(C)c2)n1 [Example D-194, 5-[(2R,3R)-3-[4-(2-hydroxypropan-2-yl)benzamido]-2-methylpiperidin-1-yl]-3-[(1-methyl-1H-pyrazol-4-yl)amino]pyrazine-2-carboxamide] | 1000 to 10000 nM | 1000 to 10000 nM | 100 to 1000 nM
15 | Cn1cc(Nc2nc(N3CCC[C@@H](NC(=O)c4ccc(C5CC5)cc4)C3)nnc2C(N)=O)cn1 [Example D-195, 3-[(3R)-3-(4-cyclopropylbenzamido)piperidin-1-yl]-5-[(1-methyl-1H-pyrazol-4-yl)amino]-1,2,4-triazine-6-carboxamide] | 1000 to 10000 nM | > 10000 nM | 100 to 1000 nM
16 | C[C@@H]1[C@H](NC(=O)c2ccc(N(C)C)cc2)CCCN1c1cnc(C(N)=O)c(Nc2ccc(N3CCN(C)CC3)cc2)n1 [Example D-196, 5-[(2R,3R)-3-[4-(dimethylamino)benzamido]-2-methylpiperidin-1-yl]-3-{[4-(4-methylpiperazin-1-yl)phenyl]amino}pyrazine-2-carboxamide] | 100 to 1000 nM | 100 to 1000 nM | 10 to 100 nM
17 | CC(C)c1ccc(C(=O)N[C@@H]2CCCN(c3cnc(C(N)=O)c(Nc4cnn(C)c4)n3)[C@@H]2C)cc1 [Example D-197, 3-[(1-methyl-1H-pyrazol-4-yl)amino]-5-[(2R,3R)-2-methyl-3-[4-(propan-2-yl)benzamido]piperidin-1-yl]pyrazine-2-carboxamide] | 1000 to 10000 nM | 1000 to 10000 nM | 100 to 1000 nM
18 | C[C@@H]1[C@H](NC(=O)c2ncc(C3CC3)cn2)CCCN1c1cnc(C(N)=O)c(Nc2cnn(C)c2)n1 [Example D-198, 5-[(2R,3R)-3-(5-cyclopropylpyrimidine-2-amido)-2-methylpiperidin-1-yl]-3-[(1-methyl-1H-pyrazol-4-yl)amino]pyrazine-2-carboxamide] | 100 to 1000 nM | 1000 to 10000 nM | 10 to 100 nM
19 | C[C@@H]1[C@H](NC(=O)c2cnc(C3CC3)cn2)CCCN1c1cnc(C(N)=O)c(Nc2cnn(C)c2)n1 [Example D-205, 5-[(2R,3R)-3-(5-cyclopropylpyrazine-2-amido)-2-methylpiperidin-1-yl]-3-[(1-methyl-1H-pyrazol-4-yl)amino]pyrazine-2-carboxamide] | 1000 to 10000 nM | 100 to 1000 nM | 10 to 100 nM
20 | Cn1cc(Nc2nc(N3CCC[C@@H](n4ccc5cc(C6CC6)ccc5c4=O)C3)nnc2C(N)=O)cn1 [Example D-206, 3-[(3R)-3-(6-cyclopropyl-1-oxo-1,2-dihydroisoquinolin-2-yl)piperidin-1-yl]-5-[(1-methyl-1H-pyrazol-4-yl)amino]-1,2,4-triazine-6-carboxamide] | 1000 to 10000 nM | 1000 to 10000 nM | 10 to 100 nM
